# Experimental data reported in paper PMC8505397, “Development of peptides targeting receptor binding site of the envelope glycoprotein to contain the West Nile virus infection” (Scientific Reports, 2021).
# What was measured:
# [1] = molecular target: T1, interaction between rDIII and proteins of hBMECs (West Nile virus, UniProt P06935); test: Blocking of interaction between rDIII and proteins of hBMECs by peptides (ELISA); format: binding, West Nile virus / human
# T1 construct: rDIII – recombinant domain III; made in house; host or cells: E. coli M15
# T1 sequence (P06935 584-692 limits assumed): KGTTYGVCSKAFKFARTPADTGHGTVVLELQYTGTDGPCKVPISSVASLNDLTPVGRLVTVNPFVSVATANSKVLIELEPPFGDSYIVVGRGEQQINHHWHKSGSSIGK
# Method: First, concentration-dependent ELISA and Western blot were performed to get the minimum concentration of rDIII required to show its interaction with hBMECs proteins. Details are presented in Supplementary Method S12 and Supplementary Method S13. Subsequently, the ability of 7-mer and 12-mer peptides to block the interaction between rDIII and proteins of hBMECs was tested. A tenfold molar excess of peptides was incubated with rDIII for 1 h at room temperature. Such pre-incubated rDIII was subsequently used in the assays. Details of both methods are described in Supplementary Method S12 and Supplementary Method S13. […]
# Blocking of interaction between rDIII and proteins of hBMECs by peptides (ELISA). First, different concentrations of rDIII were tested to get the minimum concentration of rDIII required to show the interaction with hBMECs proteins. Protein extract of hBMECs (4 μg/well) diluted in coating buffer (0.5 M Na2CO3, 0.5 M NaHCO3; pH 9.5) was incubated in the microtiter wells for overnight at 4°C. Unbound hBMECs proteins were washed with PBS (pH 7.3) containing 0.05% Tween 20 (0.05% PBST) and non-specific binding sites were blocked with 0.5% BSA in 0.05% PBST. rDIII at different concentrations (5 µg, 2.5 µg, 2 µg, 1 µg, 500 […]
# ng, 250 ng, 125 ng, and 62.5 ng) diluted in 0.05% PBST was added into wells and incubated for 3 h at room temperature and constant shaking. Wells were washed 3 times with 0.05% PBST and incubated with HisProbe-HRP conjugate (1:5,000 dilution in 0.1% BSA in 0.05% PBST; Thermo Fisher Scientific) for 30 min at room temperature and constant shaking. […] The reaction was stopped after 25 min with 2 M H2SO4 and the absorbance was measured at 450 nm. […]
# After blocking, the wells were washed 3 times with 0.05% PBST, pre-incubated rDIII was added and incubated for 3 h at room temperature with constant shaking. […] The reaction was stopped after 25 min with 2 M H2SO4 and the absorbance was measured at 450 nm. hBMECs proteins incubated with untreated rDIII were used as a positive control. […]
# [2] = test system: adhesion of rDIII on cultured hBMECs; test: Blocking of adhesion of rDIII on cultured hBMECs by peptides (immunocytochemistry); format: cell-based, human; settings: 5 µg (0.39 nM) rDIII pre-blocked with tenfold molar excess (3.9 nM) of peptide
# Method: Cells were cultured as described in Supplementary Method S1. First, concentration-dependent immunocytochemistry was performed to reveal the minimum concentration of rDIII required to detect its adhesion to the endothelial cells. Details are presented in Supplementary Method S14.
# After that, the ability of peptides to block the adhesion of rDIII to the culture of hBMECs was judged. A tenfold molar excess of each peptide was incubated with rDIII for 1 h at room temperature. Pre-incubated rDIII was subsequently used in the assay. Details are described in the Supplementary Method S14. […]
# Blocking of adhesion of rDIII on cultured hBMECs by peptides (immunocytochemistry). First, different concentrations of rDIII were tested to get the minimum concentration of rDIII required to detect the adhesion of the domain to the cultured hBMECs. In short, hBMECs were cultured on collagen type I (Sigma) coated coverslips in a 12-well culture plate in EBM-2 medium (Lonza) as was described in Supplementary Method S1 until 70% confluency. Cells were washed 2 times with PBS (pH 7.4) and fixed with acetone/ethanol (8:2 [v/v]) for 10 min at 4°C. Cells were washed 3 times with PBS (pH 7.4) and incubated with rDIII at different concentrations (20 µg, 15 µg, 10 µg, 5 µg, 2.5 µg, 2 µg, and 1 µg) diluted in 1 mL of PBS (pH 7.4) for 1 h at room temperature with gentle shaking. […]
smiles,measurement,setting,value
"CC[C@H](C)[C@@H]1NC(=O)[C@@H](NC(=O)[C@H](C)N)CSSC[C@@H](C(=O)NCC(=O)NCC(=O)NCC(=O)N[C@@H](CO)C(=O)O)NC(=O)[C@H](C)NC(=O)[C@H](CCCNC(=N)N)NC(=O)[C@H]([C@@H](C)O)NC(=O)[C@H](CO)NC(=O)[C@H](CO)NC(=O)[C@H](Cc2c[nH]cn2)NC1=O [CP4, CIHSSTRAC]","A450, rDIII binding to hBMECs proteins after pre-incubation with peptide","[1]; pre-incubated with tenfold molar excess (1.5 nM) of peptide, positive control A450 = 1.064",0.346
same,inhibition of the interaction between rDIII and hBMECs proteins,"[1]; rDIII 0.15 nM pre-incubated with tenfold molar excess (1.5 nM) of peptide, ELISA",67%
same,inhibition of the adhesion of rDIII on endothelial cells (immunocytochemistry),[2],able to inhibit the adhesion of rDIII on the endothelial cells
